For orientation: Ki means a measure of affinity in units of concentration, obtained from inhibition or displacement. Broadly, the IC50 is the midpoint of a concentration-inhibition curve.

Structures are written as SMILES.

In series [1] the test system is cocaine self-administration. The settings on record: cited from earlier work.
In series [2] the target is T1, mGluR5 (Rattus norvegicus, UniProt P31424). In kind it is binding. The following applies: alkyne 11 vs similarly substituted amide 34.
T1 sequence (P31424 21-1203): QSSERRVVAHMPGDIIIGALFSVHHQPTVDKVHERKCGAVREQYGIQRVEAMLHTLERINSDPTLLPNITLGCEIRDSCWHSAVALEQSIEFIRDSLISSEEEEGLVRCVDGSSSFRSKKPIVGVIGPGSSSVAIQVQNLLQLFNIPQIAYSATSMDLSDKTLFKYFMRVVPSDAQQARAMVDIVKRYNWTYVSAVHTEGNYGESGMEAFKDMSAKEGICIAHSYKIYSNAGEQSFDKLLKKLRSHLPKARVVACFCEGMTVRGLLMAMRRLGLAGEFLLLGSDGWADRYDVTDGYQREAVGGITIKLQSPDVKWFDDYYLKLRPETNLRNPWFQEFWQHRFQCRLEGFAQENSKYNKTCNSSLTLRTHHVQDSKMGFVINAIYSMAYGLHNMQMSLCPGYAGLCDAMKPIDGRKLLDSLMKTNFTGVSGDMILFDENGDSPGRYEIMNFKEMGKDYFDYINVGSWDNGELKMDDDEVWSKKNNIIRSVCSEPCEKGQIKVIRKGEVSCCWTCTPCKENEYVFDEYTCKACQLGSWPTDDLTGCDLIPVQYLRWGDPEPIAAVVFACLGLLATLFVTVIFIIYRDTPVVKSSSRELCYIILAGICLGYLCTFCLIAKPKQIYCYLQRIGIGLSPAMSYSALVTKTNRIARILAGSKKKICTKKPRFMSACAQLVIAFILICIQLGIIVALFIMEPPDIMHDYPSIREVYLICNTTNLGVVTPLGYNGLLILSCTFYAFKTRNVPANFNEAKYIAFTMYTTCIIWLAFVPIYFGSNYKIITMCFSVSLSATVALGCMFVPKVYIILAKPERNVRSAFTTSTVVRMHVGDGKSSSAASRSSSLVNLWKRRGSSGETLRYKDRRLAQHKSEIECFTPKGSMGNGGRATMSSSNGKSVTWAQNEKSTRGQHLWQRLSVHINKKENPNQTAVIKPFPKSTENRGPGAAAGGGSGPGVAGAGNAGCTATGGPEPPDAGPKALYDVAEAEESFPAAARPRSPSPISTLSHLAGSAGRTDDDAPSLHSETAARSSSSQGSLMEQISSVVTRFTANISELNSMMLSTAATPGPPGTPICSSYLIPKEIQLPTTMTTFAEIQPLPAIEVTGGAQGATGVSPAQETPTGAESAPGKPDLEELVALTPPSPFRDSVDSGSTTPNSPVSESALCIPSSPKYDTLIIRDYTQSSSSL
For another series, the system named is rats. In words: Preliminary in vivo testing in rats. The settings on record: personal communication with Dr. S. Barak Caine.
Series [3] deals with T1, mGluR5. In words: mGluR5 radioligand binding with [3H]1, rat brain membranes.
For another series, the target named is rat mGluR5 (Rattus norvegicus, UniProt P31424). Description: Calcium fluorescence assay. In kind it is cell-based.
rat mGluR5, sequence (P31424 21-1203): as above

On to `Cc1cccc(C#Cc2ccccc2)n1` [Compound 1, 2-methyl-6-(phenylethynyl)pyridine], for which the “effect on cocaine self-administration” value in series [1] is given as “dose-dependently decreases”. In addition, the “effect on food intake” value in series [1] (identical schedules of reinforcement) was “no effect”.

Take `Cc1nc(C#Cc2cc(F)cc(C#N)c2)cs1` [Compound 11, 3-Fluoro-5-cyano-1-(2-methylthiazol-4-ylethynyl)benzene]: the “fold higher affinity at mGluR5 than the amide” value at mGluR5 [2] was more than 70 fold. The “toxicity in preliminary in vivo testing” value with rats was “showed toxicity”.

`Cc1cccc(C#Cc2ccc(-c3ccccc3)c(C#N)c2)n1` [Compound 21, 2-Phenyl-5-(6-methylpyridin-2-ylethynyl)benzonitrile]: the affinity on mGluR5 [3] corresponds to a Ki of 4 ± 0.6 nM. For the same compound, at rat mGluR5, the IC50 was found to be 3.08 ± 0.61 nM.

In the case of `Cc1cccc(C#Cc2ccc(-c3cccc(F)c3)c(C#N)c2)n1` [Compound 22, 2-(3-Fluorophenyl)-5-(6-methylpyridin-2-ylethynyl)benzonitrile], the Ki on mGluR5 [3] is 17 ± 2.2 nM. The IC50 at rat mGluR5 worked out at 6.1 ± 1.95 nM.

Source of the values: PMC2894482 (Journal of medicinal chemistry, 2009).
